Results: PubChem BioAssay (NCI)
Values joined by “and” are separate entries in the source; they are usually repeats but may differ in a detail not shown here. Equal values may be shown once.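 In this assay, cells in 96-well plates receive the compound at five concentrations for 48 hours. Endpoints are linearly interpolated between the surrounding concentrations. Abbreviation: GI50, concentration required for 50% inhibition of growth. The concentration for full growth arrest is given as TGI.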

Legend:
Assay in all cases: NCI-60 cell line screen, 48 h
A549 NSCLC = tested on: A549 NSCLC
CCRF-CEM leukemia = tested on: CCRF-CEM leukemia
COLO 205 colon = tested on: COLO 205 colon
M14 melanoma = tested on: M14 melanoma
NCI-H460 lung = tested on: NCI-H460 lung
OVCAR-8 ovarian = tested on: OVCAR-8 ovarian
PC-3 prostate = tested on: PC-3 prostate
SF-268 CNS = tested on: SF-268 CNS
SK-MEL-28 melanoma = tested on: SK-MEL-28 melanoma
SNB-75 CNS = tested on: SNB-75 CNS

Row | SMILES | GI50 (A549 NSCLC) | TGI (A549 NSCLC) | GI50 (CCRF-CEM leukemia) | TGI (CCRF-CEM leukemia) | GI50 (COLO 205 colon) | TGI (COLO 205 colon) | GI50 (M14 melanoma) | TGI (M14 melanoma) | GI50 (NCI-H460 lung) | TGI (NCI-H460 lung) | GI50 (OVCAR-8 ovarian) | TGI (OVCAR-8 ovarian) | GI50 (PC-3 prostate) | TGI (PC-3 prostate) | GI50 (SF-268 CNS) | TGI (SF-268 CNS) | GI50 (SK-MEL-28 melanoma) | TGI (SK-MEL-28 melanoma) | GI50 (SNB-75 CNS) | TGI (SNB-75 CNS)
1 | CN(C)CC[C@H](CSc1ccccc1)Nc1ccc(S(=O)(=O)NC(=O)c2ccc(N3CCN(Cc4ccccc4-c4ccc(Cl)cc4)CC3)cc2)cc1[N+](=O)[O-] | 3.73 µM | > 100 µM | 0.36 µM | > 100 µM | 2.12 µM | 4.7 µM | 4.17 µM | 29.8 µM | 3.52 µM | 23.9 µM | 6.12 µM | > 100 µM | 4.07 µM | > 100 µM | 5.84 µM | > 100 µM | 5.73 µM | > 100 µM | 6.09 µM | > 100 µM
2 | NS(=O)(=O)c1ccc(N=Nc2c(O)c(C(=O)O)cc3ccccc23)cc1 |  | > 100 µM |  | > 100 µM |  | > 84.2 µM |  | > 100 µM |  | > 100 µM |  | > 100 µM |  | > 100 µM |  | > 100 µM |  | > 100 µM |  | > 100 µM
3 | Cc1nnc(Nc2ccc(NC(=O)Nc3ccc(Cl)cc3)cc2)c2ccccc12 | 3.24 µM | 8.59 µM | 2.38 µM | 5.99 µM | 2.22 µM | 5.29 µM | 1.76 µM | 3.57 µM | 3.46 µM | 11.7 µM | 3.35 µM | 9.32 µM | 3.49 µM | 11.9 µM | 2.57 µM | 7.17 µM | 1.63 µM | 3.2 µM | 1.91 µM | 5.49 µM
4 | O=C(Cc1ccc(F)c(Cl)c1)Nc1cc(C2(C(F)(F)F)CC2)nn1CC1CCCCC1 | 4.6 µM | > 15 µM | 4.72 µM | > 15 µM | 2.59 µM | 5.41 µM | 4.3 µM | > 15 µM | 3.28 µM | 8.41 µM | 4.96 µM | > 15 µM | 4.68 µM | > 15 µM | 3.95 µM | > 15 µM | 4.82 µM | > 15 µM | 0.808 µM | 5.99 µM
5 | CCn1c(O)c(/C=N/NC(=O)C(C)c2ccc(CC(C)C)cc2)sc1=S (stereo not given) | 0.472 µM | > 54.4 µM | 0.23 µM | > 100 µM | 1.23 µM | 9.04 µM | 0.285 µM | 14.5 µM | 0.353 µM | 10.9 µM | 0.493 µM | > 100 µM | 0.415 µM | > 41.4 µM | 1.63 µM | > 43.4 µM | 1 µM | > 45.8 µM | 0.241 µM | 0.757 µM
6 | COC(=O)c1ccc2c(c1)C(=O)c1c-2n(CCCN=[N+]=[N-])c(=O)c2cc(OC)c(OC)cc12 | > 100 µM | > 100 µM | > 100 µM | > 100 µM | > 100 µM | > 100 µM | > 100 µM | > 100 µM | > 100 µM | > 100 µM | > 100 µM | > 100 µM | > 100 µM | > 100 µM | > 100 µM | > 100 µM | > 100 µM | > 100 µM | 8.24 µM | > 100 µM
7 | CCC[CH2][Sn]([CH2]CCC)([O]C(=O)c1ccc(OC)c(OC)c1OC)[O][Sn]([CH2]CCC)([CH2]CCC)[O]C(=O)c1ccc(OC)c(OC)c1OC | 2.27 µM | 5.42 µM | 0.0133 µM | 0.161 µM | 0.27 µM | 0.917 µM | 0.267 µM | 0.583 µM | 0.895 µM | 2.55 µM | 0.299 µM | 0.979 µM | 1.2 µM | 2.46 µM | 0.187 µM | 0.842 µM | 0.25 µM | 0.723 µM | 0.177 µM | 0.744 µM
8 | Cc1cc(N[C@@H]2CCC[C@H](Nc3ccnc4cc(Cl)ccc34)C2)nc(N2CCCCCC2)n1 | 2.19 µM | 4.94 µM | 1.59 µM | 10.7 µM | 1.36 µM | 2.89 µM | 1.55 µM | 3.29 µM | 1.58 µM | 3.2 µM | 2.51 µM | 6.1 µM | 1.81 µM | 4.05 µM | 1.54 µM | 3.39 µM | 1.85 µM | 3.62 µM | 1.43 µM | 3.14 µM
9 | Nc1ncn([C@@H]2O[C@H](CO)[C@@H](O)[C@H]2O)c(=O)n1 | 1.03 µM | > 100 µM | 1.95 µM | > 100 µM | 1.21 µM | 3.02 µM | 1.38 µM | 10.8 µM | 0.232 µM | 1.78 µM | 0.766 µM | > 100 µM | 2.17 µM | > 100 µM | 2.14 µM | 34.7 µM | 2.68 µM | 11.1 µM | 1.63 µM | 6.2 µM
10 | COc1cc(N(CCC#N)CCC#N)ccc1/C(N=Nc1ccc(Cl)cc1)=N/NC(=O)c1cc(Br)ccc1O | 85.5 µg/mL | > 150 µg/mL | 74 µg/mL | > 150 µg/mL | 41.7 µg/mL | 127 µg/mL | 58.5 µg/mL | > 150 µg/mL | 53.6 µg/mL | > 150 µg/mL | 39 µg/mL | 108 µg/mL | 64.1 µg/mL | > 150 µg/mL | 35 µg/mL | > 150 µg/mL | > 150 µg/mL | > 150 µg/mL | 25 µg/mL | 95.1 µg/mL
11 | O=C(Nc1cc(C(F)(F)F)cc(C(F)(F)F)c1)c1cc(Cl)ccc1O | 0.293 µM and 0.319 µM | > 4.32 µM and 12.8 µM | 0.237 µM and 0.378 µM | 1.3 µM and 7.79 µM | 0.696 µM and 1.34 µM | 2.34 µM and 3.22 µM | 0.291 µM and 0.273 µM | 1.25 µM and 1.54 µM | 0.271 µM and 0.29 µM | 1.42 µM and 1.94 µM | 0.278 µM and 0.285 µM | 3.85 µM and 6.08 µM | 0.257 µM and 0.266 µM | > 3.02 µM and 3.78 µM | 0.21 µM | 2.1 µM and 2.82 µM | 0.285 µM and 0.199 µM | 1.84 µM and 1.31 µM | 0.159 µM and 0.172 µM | 0.586 µM
12 | Clc1cc2c(c(CSc3nc4ccccc4n4cccc34)c1)OCOC2 | > 100 µM | > 100 µM | > 100 µM | > 100 µM | > 100 µM | > 100 µM | > 100 µM | > 100 µM | > 100 µM | > 100 µM | 20.6 µM | > 100 µM | > 100 µM | > 100 µM | 31.3 µM | > 100 µM | > 100 µM | > 100 µM | 6.48 µM | 26.8 µM
